Assay results reported in paper PMC12260535, “A novel thiazole-sulfonamide hybrid molecule as a promising dual tubulin/carbonic anhydrase IX inhibitor with anticancer activity” (Frontiers in Chemistry, 2025).
Where two headings read alike, the source gives them in different places.

Experiments:
[1] = test system: WI-38 normal lung fibroblast cells; assay: MTT cytotoxicity assay, normal WI-38 fibroblasts; format: cell-based; details: Homo sapiens, 48 h, WI-38 normal fibroblasts
Protocol: (§1) All cell lines were obtained from the Vacsera Cell Culture Library, Tissue Culture Unit, Cairo, Egypt, with ATCC certification. The assay enabled the detection of membrane-compromised cells based on the fluorescence intensity of DNA binding. Check Appendix A for additional information.
(§2) Cells were cultured in their respective recommended media supplemented with 10% fetal bovine serum and 1% penicillin-streptomycin and maintained at 37 °C in a humidified atmosphere containing 5% CO₂. Cell viability was assessed using the MTT assay, following the protocol provided with the In Vitro Toxicology Assay Kit, MTT Based (Sigma-Aldrich, TOX-1). Briefly, cells were seeded in 96-well plates at a density of 5 × 10³ cells/well and allowed to adhere overnight. […] Subsequently, 10 µL of reconstituted MTT solution (5 mg/mL in serum-free, phenol red-free medium) was added to each well and incubated for 3 h at 37 °C. The resulting formazan crystals were dissolved by adding 100 µL of the MTT Solubilization Solution, and the plates were gently shaken to ensure complete solubilization. Absorbance was recorded at 570 nm with a reference wavelength of 690 nm using a microplate reader. Cell viability was expressed as a percentage relative to untreated control cells. All experiments were conducted in triplicate, and IC₅₀ values were determined using linear regression analysis.

[2] = test system: 786-O (renal carcinoma) cells; assay: MTT antiproliferative assay, 786-O; format: cell-based; details: Homo sapiens, read-out: IC50 786-O
Protocol: as §1, §2

[3] = test system: A549 (lung carcinoma) cells; assay: MTT antiproliferative assay, A549; format: cell-based; details: Homo sapiens, read-out: IC50 A549
Protocol: (§3) . All cell lines were obtained from the Vacsera Cell Culture Library, Tissue Culture Unit, Cairo, Egypt, with ATCC certification. […] Check Appendix A for additional information.
as §2, with “. Cells” for “Cells”

[4] = test system: MCF-7 (breast adenocarcinoma) cells; assay: MTT antiproliferative assay, MCF-7; format: cell-based; details: Homo sapiens, read-out: IC50 MCF-7
Protocol: as §3
as §2, with “. Cells” for “Cells”

[5] = test system: HT-29 (colon adenocarcinoma) cells; assay: MTT antiproliferative assay, HT-29; format: cell-based; details: Homo sapiens, 48 h, HT-29 colorectal cancer cells
Protocol: as §1, §2

CA IX [6] = details: cited from earlier work
tubulin = details: read-out: tubulin polymerization IC50, cited from earlier work
Bax = Bax ELISA in HT-29 cells; format: cell-based, human
Protocol: Changes in Bax levels were quantified in treated cell lysates to assess the apoptotic response. Comprehensive assay details are available in Appendix A (Supplementary Material).
This sandwich-based immunoassay utilizes a monoclonal antibody specific for human BAX-α to capture and quantify the protein in cell lysates. Cells were lysed using the provided Cell Lysis Buffer, freshly supplemented with phenylmethylsulfonyl fluoride (PMSF, 1 mM) and protease inhibitor cocktail (PIC, 0.5 µL/mL). Lysates were incubated on ice, vortexed, and centrifuged at 16,000 rpm for 15 minutes at 4 °C. The supernatants were collected and diluted with the kit's Assay Buffer. A standard curve was generated using BAX-α standards with concentrations of 62.5, 125, 250, 500, 1000, and 2000 ng/mL. The corresponding net absorbance values (after subtracting the average blank OD of 0.023) were 0.110, 0.192, 0.338, 0.781, 1.443, and 2.496, respectively. Absorbance was measured at 450 nm with a reference wavelength of 570–590 nm. BAX concentrations in the samples were calculated using linear regression analysis based on the standard curve obtained. The assay provided a sensitive and quantitative measure of BAX modulation in response to compound 7.

Bcl-2 = Bcl-2 ELISA in HT-29 cells; format: cell-based, human
Protocol: Absorbance was measured at 450 nm to determine changes in Bcl-2 expression in response to treatment. A full description of the assay protocol is included in Appendix A (Supplementary Material).
The assay is based on a sandwich ELISA format, where human Bcl-2 is captured by a monoclonal antibody coated on a microwell plate and detected using a biotin-conjugated anti-Bcl-2 antibody followed by Streptavidin-HRP and TMB substrate. Cells were lysed using the supplied Lysis Buffer at a concentration of 5 × 10⁶ cells/mL and incubated for 1 hour at room temperature with gentle shaking. Lysates were clarified by centrifugation at 1000 × g for 15 minutes, and the supernatants were collected for immediate use or stored at –80 °C. For the assay, 20 µL of sample was added to wells along with 80 µL of Sample Diluent, followed by 50 µL of diluted biotin-conjugate. After a 2-hour incubation at room temperature, plates were washed and incubated with diluted Streptavidin-HRP for 1 hour. […] Absorbance was measured at 450 nm with optional correction between 610–650 nm. […] The corresponding absorbance values ranged from approximately 0.121 to 2.461, with a background (blank) absorbance of 0.023. Net absorbance values were calculated by subtracting the blank from each standard, and the resulting data were used to construct a calibration curve. […]

CA XII = CA XII (Homo sapiens, UniProt O43570); assay: Carbonic anhydrase inhibitor screening kit (colorimetric), CA XII
CA XII, sequence (O43570 25-354): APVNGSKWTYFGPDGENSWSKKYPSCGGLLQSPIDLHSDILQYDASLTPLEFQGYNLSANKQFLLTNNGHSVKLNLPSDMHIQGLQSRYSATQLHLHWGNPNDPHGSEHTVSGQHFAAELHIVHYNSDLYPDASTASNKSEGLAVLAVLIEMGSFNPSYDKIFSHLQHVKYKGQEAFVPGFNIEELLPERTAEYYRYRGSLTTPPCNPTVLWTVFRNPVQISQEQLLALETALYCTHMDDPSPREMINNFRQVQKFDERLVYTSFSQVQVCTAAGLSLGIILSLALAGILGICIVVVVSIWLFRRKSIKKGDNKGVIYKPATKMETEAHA

p53 = p53 ELISA in HT-29 cells; format: cell-based, human
CA II = CA II (Homo sapiens, UniProt P00918); assay: Carbonic anhydrase inhibitor screening kit (colorimetric), CA II
caspase-9 = assay: Caspase-9 ELISA in HT-29 cells; format: cell-based, human
From the text: This assay employs a sandwich ELISA format, utilizing a specific capture antibody and an HRP-conjugated detection system, with absorbance measured at 450 nm. A detailed methodology is provided in Appendix A (Supplementary Material).
This solid-phase sandwich ELISA employs a monoclonal antibody pre-coated on a 96-well microplate to capture caspase-9 from samples. A rabbit polyclonal detection antibody specific to human caspase-9 is subsequently added, followed by an HRP-conjugated anti-rabbit IgG and TMB substrate for colorimetric detection. The intensity of the yellow product formed after stopping the reaction with phosphoric acid is proportional to the amount of caspase-9 present and is measured at 450 nm. […] Lysates were centrifuged at 1,000 × g for 15 minutes, and the clear supernatants were collected and either analyzed immediately or stored at –80 °C. […] Standard concentrations of 1.6, 3.1, 6.3, 12.5, 25, 50, and 100 ng/mL yielded OD values of 0.140, 0.167, 0.213, 0.239, 0.501, 0.799, and 1.639 respectively, with a blank reading of 0.042. Net OD values were calculated by subtracting the blank absorbance, and the standard curve was constructed accordingly. The concentration of caspase-9 in each sample was determined using linear regression analysis, and final values were adjusted by the dilution factor.

CA IX [7] = target: CA IX (Homo sapiens, UniProt Q16790); assay: Carbonic anhydrase inhibitor screening kit (colorimetric), CA IX
caspase-3 = assay: Active caspase-3 ELISA in HT-29 cells; format: cell-based, human
From the text: This sandwich ELISA detects caspase-3 cleaved at Asp175/Ser176, enabling sensitive colorimetric measurement at 450 nm. Additional procedural details are provided in Appendix A (Supplementary Material).
This assay is based on a solid-phase sandwich ELISA principle, where an anti-human caspase-3 monoclonal antibody is pre-coated onto a microplate. Cell lysates or standards are captured by this antibody, followed by the addition of a rabbit polyclonal detection antibody specific for active caspase-3 cleaved at Asp175/Ser176. Detection is then performed using HRP-conjugated anti-rabbit IgG and TMB substrate. Cell lysates were prepared in protease inhibitor-supplemented cell extraction buffer and clarified by centrifugation. Samples were diluted in Standard Diluent Buffer and added to the wells along with a standard curve of human active caspase-3. The standard concentrations included 39, 78, 156, 313, 625, 1250, and 2500 ng/mL, which yielded optical density (OD) readings ranging from 0.192 to 2.733. A blank reading of 0.018 was subtracted from each standard OD, and the resulting data were used to generate a standard curve. […] After color development, the reaction was stopped with acid, and absorbance was read at 450 nm. The concentration of active caspase-3 in treated samples was determined using linear regression analysis of the standard curve. […]

CA I = CA I (Homo sapiens, UniProt P00915); assay: Carbonic anhydrase inhibitor screening kit (colorimetric), CA I
CA I, sequence (P00915 whole entry): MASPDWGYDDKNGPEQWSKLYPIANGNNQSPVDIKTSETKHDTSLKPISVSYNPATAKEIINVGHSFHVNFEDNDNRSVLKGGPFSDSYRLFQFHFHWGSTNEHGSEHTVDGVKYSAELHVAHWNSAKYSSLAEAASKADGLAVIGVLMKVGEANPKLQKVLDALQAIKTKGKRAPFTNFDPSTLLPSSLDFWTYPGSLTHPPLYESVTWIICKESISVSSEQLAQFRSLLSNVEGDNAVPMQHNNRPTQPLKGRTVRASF

For `COc1ccc(/C=C\c2cc(OC)c(OC)c(OC)c2)cc1O` [CA-4, combretastatin A-4, reference compound], the IC50 [1] was 28100 nM, the IC50 ([2]; 786-0, MTT assay, 48 h, 786-O renal cancer cells) was 3270 nM and the IC50 ([3]; MTT assay, 48 h, A549 lung cancer cells) was 440 nM. The IC50 ([4]; MCF7, MTT assay, 48 h, MCF-7 breast cancer cells) was 1820 nM and the IC50 [5] was 2150 nM.
In the case of `NS(=O)(=O)c1ccc(NC(=O)Nc2cc3cc(Br)ccc3o2)cc1` [Compound II], the Ki (CA IX [6]; ref Shaldam et al., 2021) is listed as 5.5 nM.
For `COc1cc(-c2csc(NC(=O)CNc3ccc([N+](=O)[O-])cc3)n2)cc(OC)c1OC` [compound VIII], the IC50 (tubulin; ref El-Abd et al., 2022) is listed as 2000 nM.
In the case of `COc1ccc2[nH]cc(/C=N/Nc3nc(-c4cccc(Br)c4)cs3)c2c1` [Compound VII], the IC50 (tubulin; ref Wang et al., 2024) is given as 1680 nM.
With `Cc1[nH]c(=S)sc1C(=O)/C=C/c1ccc(S(N)(=O)=O)cc1` [Compound 7, (E)-4-(3-(4-methyl-2-thioxo-2,3-dihydrothiazol-5-yl)-3-oxoprop-1-en-1-yl)benzenesulfonamide] the IC50 ([2]; 786-0, 48 h) was 1560 nM, the “Bax Conc” value (Bax; ELISA, DMSO control 68.50 ± 1.67) was 392.25 ± 14.58 pg/mL and the “Bax Fold change” value (Bax; versus DMSO control) was 5.73. The “Bcl-2 Conc” value (Bcl-2; ELISA, DMSO control 19.25 ± 0.43) was 6.212 ± 0.093 pg/mL, the “Bcl-2 Fold change” value (Bcl-2; versus DMSO control) was 0.323 and the IC50 (CA XII) was 114 ± 12 nM. For the same compound, the “P53 Conc” value (p53; ELISA, DMSO control 150.66 ± 3.33) was 1,224.00 ± 6.67 pg/mL, the “P53 Fold change” value (p53; versus DMSO control) was 8.12 and the IC50 (CA II) was 381 ± 45 nM. For the same compound, the “Caspase-9 Conc” value (caspase-9; ELISA, DMSO control 5.09 ± 0.26) was 49.39 ± 1.13 ng/mL, the “Caspase-9 Fold change” value (caspase-9; versus DMSO control) was 9.70 and the IC50 (CA IX [7]) was 21 ± 4 nM. The “Caspase 3 Conc” value (caspase-3; ELISA, DMSO control 57.64 ± 1.36) was 511.27 ± 13.18 pg/mL, the “Caspase 3 Fold change” value (caspase-3; versus DMSO control) was 8.87 and the IC50 (CA I) was 1900 ± 250 nM. It also gave an IC50 ([3]; A549, 48 h) of 6820 nM and an IC50 ([4]; MCF7, 48 h) of 3630 nM.
For `COc1cc(/C=C/C(=O)c2nnn(-c3ccc(S(N)(=O)=O)cc3)c2C)cc(OC)c1OC` [compound V], the Ki (CA IX [6]; ref Abdelhakeem et al., 2024) is listed as 30 nM.
In the case of `CCOc1ccc(-c2sc(N)nc2-c2ccc(OC)c3ccccc23)cc1` [compound VI], the IC50 (tubulin; ref Wang et al., 2021) is listed as 3300 nM.
